Test results taken from patent publication US20220356174A1, “PYRIDIN-2-ONE COMPOUNDS USEFUL AS SMARCA2 ANTAGONISTS” (Epizyme, Inc., priority 2018, published 2022).
Like-named read-outs stand apart in the source and are kept apart here. One block for each compound: values may come before it.

How the values were obtained:
[1] = biological target: FL-SMARCA4 (Homo sapiens, UniProt P51532); test: SMARCA4 ATPase activity assay (ADP-Glo, chicken mononucleosome substrate)
[2] = biological target: T1, FL-SMARCA2 (full-length human SMARCA2 isoform 1) (Homo sapiens, UniProt P51531); test: SMARCA2 ATPase activity assay (ADP-Glo, chicken mononucleosome substrate); type: biochemical; conditions: ATP 250 uM
T1 construct: FLAG tag (YKDDDDK) (C); made in house; host or cells: Sf21 insect cells (baculovirus, pFastBacI)
T1 sequence (P51531 with tags, fused parts or gaps): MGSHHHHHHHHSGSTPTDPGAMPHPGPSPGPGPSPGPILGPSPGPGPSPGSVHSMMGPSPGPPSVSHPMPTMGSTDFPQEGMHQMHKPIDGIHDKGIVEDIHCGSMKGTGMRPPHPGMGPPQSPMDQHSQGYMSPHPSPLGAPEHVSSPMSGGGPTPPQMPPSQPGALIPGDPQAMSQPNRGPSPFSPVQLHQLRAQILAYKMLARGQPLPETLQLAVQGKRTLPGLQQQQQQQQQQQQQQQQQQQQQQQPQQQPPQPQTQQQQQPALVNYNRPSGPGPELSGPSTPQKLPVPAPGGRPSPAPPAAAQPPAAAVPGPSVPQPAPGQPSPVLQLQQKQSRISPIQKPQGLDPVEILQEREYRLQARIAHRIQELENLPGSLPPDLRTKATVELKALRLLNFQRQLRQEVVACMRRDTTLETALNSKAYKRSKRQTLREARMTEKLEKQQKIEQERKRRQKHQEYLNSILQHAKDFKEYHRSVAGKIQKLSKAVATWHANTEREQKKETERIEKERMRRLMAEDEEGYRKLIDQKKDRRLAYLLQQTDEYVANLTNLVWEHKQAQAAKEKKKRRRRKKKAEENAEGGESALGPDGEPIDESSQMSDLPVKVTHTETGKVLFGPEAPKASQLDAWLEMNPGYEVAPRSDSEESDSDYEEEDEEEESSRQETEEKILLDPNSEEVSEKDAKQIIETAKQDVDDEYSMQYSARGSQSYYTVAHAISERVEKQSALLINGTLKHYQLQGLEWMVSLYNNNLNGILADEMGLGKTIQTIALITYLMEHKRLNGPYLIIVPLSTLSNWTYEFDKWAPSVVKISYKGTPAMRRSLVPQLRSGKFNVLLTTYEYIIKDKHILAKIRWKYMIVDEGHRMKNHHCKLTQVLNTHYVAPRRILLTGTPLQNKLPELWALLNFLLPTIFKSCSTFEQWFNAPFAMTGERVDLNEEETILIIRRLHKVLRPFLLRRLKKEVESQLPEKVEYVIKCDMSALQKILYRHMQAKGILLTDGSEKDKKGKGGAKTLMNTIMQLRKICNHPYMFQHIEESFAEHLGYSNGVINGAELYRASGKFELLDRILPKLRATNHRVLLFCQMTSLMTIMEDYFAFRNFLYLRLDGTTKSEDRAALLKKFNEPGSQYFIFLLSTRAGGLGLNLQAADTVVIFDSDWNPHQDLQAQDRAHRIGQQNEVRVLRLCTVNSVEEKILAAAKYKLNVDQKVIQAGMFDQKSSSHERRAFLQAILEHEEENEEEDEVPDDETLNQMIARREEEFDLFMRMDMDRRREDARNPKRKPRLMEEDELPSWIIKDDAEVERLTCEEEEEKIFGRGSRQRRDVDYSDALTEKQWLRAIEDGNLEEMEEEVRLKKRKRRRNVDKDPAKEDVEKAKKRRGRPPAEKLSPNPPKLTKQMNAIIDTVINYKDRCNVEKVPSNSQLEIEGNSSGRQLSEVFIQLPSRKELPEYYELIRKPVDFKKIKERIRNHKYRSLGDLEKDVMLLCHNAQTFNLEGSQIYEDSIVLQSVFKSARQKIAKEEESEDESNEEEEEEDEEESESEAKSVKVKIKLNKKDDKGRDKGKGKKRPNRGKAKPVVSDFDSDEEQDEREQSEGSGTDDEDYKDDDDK
Source text: Molecular Biology: Full-length human SMARCA2 isoform 1 (P51531) transcript clone was amplified from a cDNA library incorporating an N-terminal HIS tag ([…]) fused directly to Ser2 of SMARCA2 and a C-FLAG tag (YKDDDDK) fused directly to Glu1590 of SMARCA2. The amplified gene was subcloned into pFastBacI (Life Technologies).
Protein Expression: Recombinant baculovirus were generated and protein over-expression was accomplished by infecting exponentially growing Sf21 insect cell culture at 1.24×10^6 cell/ml with an MOI of 0.1. Infections were carried out for 76 hours, harvested by centrifugation, and stored at −80° C. for purification.
Expressed full-length SMARCA2 was purified from cell paste by FLAG affinity chromatography followed by anion exchange chromatography. The protein was dialyzed into a storage buffer containing 25 mM HEPES, 300 mM KCl, 10% Glycerol, pH 7.9, 1 mM TCEP and 0.01% Tween-20. The purity of the protein was measured as 74% using micro-capillary based gel electrophoresis.

[3] = FL-SMARCA4 IC50, Table 3a.2, SMARCA4 5 nM, ATP 250 uM, mononucleosome 10 nM
[4] = Table 3a.1, SMARCA2 5 nM, mononucleosome 10 nM
[5] = FL-SMARCA4 IC50, Table 3b.2, SMARCA4 5 nM, ATP 250 uM, mononucleosome 10 nM
[6] = Table 3b.1, SMARCA2 5 nM, mononucleosome 10 nM
[7] = FL-SMARCA4 IC>50, Table 3c.2, ATPase assay, enzyme 5 nM, ATP 250 uM, chicken mononucleosome 10 nM, 30 min preincubation
[8] = Table 3c.1, ATPase assay, enzyme 5 nM, chicken mononucleosome 10 nM, 30 min preincubation
[9] = Table 3d.1, ATPase assay, enzyme 5 nM, chicken mononucleosome 10 nM, 30 min preincubation, read-out: FL-SMARCA2 IC>50
[10] = FL-SMARCA4 IC50, Table 3.2, ATPase assay, enzyme 5 nM, ATP 250 uM, chicken mononucleosome 10 nM, 30 min preincubation
[11] = Table 3.1, ATPase assay, enzyme 5 nM, chicken mononucleosome 10 nM, 30 min preincubation

FL-SMARCA4, sequence (P51532 whole entry, canonical isoform): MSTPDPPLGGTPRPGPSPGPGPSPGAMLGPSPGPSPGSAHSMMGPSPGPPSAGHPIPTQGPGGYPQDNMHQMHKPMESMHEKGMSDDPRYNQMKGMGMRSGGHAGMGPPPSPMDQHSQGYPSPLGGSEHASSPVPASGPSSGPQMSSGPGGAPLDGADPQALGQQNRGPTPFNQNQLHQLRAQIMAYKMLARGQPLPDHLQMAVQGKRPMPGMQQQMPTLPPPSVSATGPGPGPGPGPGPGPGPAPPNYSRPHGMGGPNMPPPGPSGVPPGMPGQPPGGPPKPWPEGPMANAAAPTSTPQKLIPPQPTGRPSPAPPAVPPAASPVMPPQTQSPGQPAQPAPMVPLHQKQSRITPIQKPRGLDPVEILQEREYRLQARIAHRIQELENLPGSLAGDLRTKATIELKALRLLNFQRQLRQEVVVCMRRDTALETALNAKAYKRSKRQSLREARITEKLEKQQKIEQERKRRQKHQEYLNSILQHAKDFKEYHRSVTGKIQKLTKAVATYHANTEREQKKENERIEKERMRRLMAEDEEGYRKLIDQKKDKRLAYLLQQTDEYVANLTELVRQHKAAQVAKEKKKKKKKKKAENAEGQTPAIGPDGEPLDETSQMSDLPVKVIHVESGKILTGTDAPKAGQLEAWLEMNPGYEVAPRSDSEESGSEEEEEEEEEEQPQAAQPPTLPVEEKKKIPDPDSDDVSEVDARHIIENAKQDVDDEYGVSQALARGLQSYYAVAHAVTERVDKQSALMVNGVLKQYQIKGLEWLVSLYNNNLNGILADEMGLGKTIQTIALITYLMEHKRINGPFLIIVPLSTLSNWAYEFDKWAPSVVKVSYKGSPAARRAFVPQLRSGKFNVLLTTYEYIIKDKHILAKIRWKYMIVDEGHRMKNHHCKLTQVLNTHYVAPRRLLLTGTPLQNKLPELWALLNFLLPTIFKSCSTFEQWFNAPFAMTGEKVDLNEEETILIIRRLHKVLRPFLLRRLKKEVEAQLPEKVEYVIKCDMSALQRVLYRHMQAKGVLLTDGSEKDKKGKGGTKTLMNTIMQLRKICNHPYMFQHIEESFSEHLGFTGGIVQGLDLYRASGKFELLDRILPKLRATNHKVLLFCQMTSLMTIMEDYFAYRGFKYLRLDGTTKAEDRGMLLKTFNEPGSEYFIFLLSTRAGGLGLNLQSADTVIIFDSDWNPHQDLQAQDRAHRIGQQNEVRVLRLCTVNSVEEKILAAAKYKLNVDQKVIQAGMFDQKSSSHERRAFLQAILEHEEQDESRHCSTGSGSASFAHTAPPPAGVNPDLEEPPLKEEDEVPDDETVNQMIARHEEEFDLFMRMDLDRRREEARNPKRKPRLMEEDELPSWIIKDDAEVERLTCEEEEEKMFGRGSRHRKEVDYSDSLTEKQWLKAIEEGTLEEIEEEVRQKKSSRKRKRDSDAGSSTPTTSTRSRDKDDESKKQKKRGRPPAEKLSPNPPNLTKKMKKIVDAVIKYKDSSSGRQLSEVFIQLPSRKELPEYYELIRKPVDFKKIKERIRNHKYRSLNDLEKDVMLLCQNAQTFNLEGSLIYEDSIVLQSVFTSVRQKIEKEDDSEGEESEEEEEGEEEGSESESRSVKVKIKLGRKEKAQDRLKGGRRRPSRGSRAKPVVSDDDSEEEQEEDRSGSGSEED

IC50 [1, 3]: > 50 µM | IC50 [2, 4]: > 50 µM
SMILES: CCn1cc(NC(=O)c2ccc(=O)n(-c3ccccc3F)n2)ccc1=O [Compound 1a]

IC50 [1, 5]: > 50 µM | IC50 [2, 6]: > 50 µM
SMILES: CC(=O)c1cc(C(=O)Nc2c[nH]c(=O)c(C)c2)ccc1C [Compound 1b]

IC50 [1, 7]: > 50 µM | IC50 [2, 8]: 0.402 µM
SMILES: O=C(Nc1cc(F)c(=O)n(CC(F)F)c1)c1nnc(Cl)o1 [Compound 1c]

IC50 ([1]; FL-SMARCA4 IC50): > 50 µM | IC50 [2, 9]: > 50 µM
SMILES: CCn1cc(NC(=O)C(=O)c2ccc(Cl)s2)ccc1=O [Compound 1d]

IC50 [1, 10]: > 50 µM | IC50 [2, 11]: 33.2 µM
SMILES: Cn1cc(NC(=O)c2coc(Br)c2)cc(Cl)c1=O [Compound 2]

IC50 [1, 3]: > 50 µM | IC50 [2, 4]: > 50 µM
SMILES: CC(C)COc1ncccc1C(=O)Nc1cc(Cl)c(=O)n(C)c1 [Compound 2a]

IC50 [1, 5]: > 50 µM | IC50 [2, 6]: > 50 µM
SMILES: Cc1c(Cl)cccc1C(=O)Nc1c[nH]c(=O)c(C)c1 [Compound 2b]

IC50 [1, 7]: > 50 µM | IC50 [2, 8]: 24.6 µM
SMILES: C[S+]([O-])c1cc(C(=O)Nc2cc(F)c(=O)n(CC(F)F)c2)sc1Cl (stereo not drawn) [Compound 2c]

IC50 ([1]; FL-SMARCA4 IC50): > 50 µM | IC50 [2, 9]: > 50 µM
SMILES: Cc1cc(C)n(-c2ccc(C(=O)Nc3cn(C)c(=O)cc3C)cn2)n1 [Compound 2d]

IC50 [1, 10]: > 50 µM | IC50 [2, 11]: > 50 µM
SMILES: CCn1cc(NC(=O)c2nc(-c3ccc(OC)cc3)oc2C)ccc1=O [Compound 3]

IC50 [1, 3]: > 50 µM | IC50 [2, 4]: > 50 µM
SMILES: CCn1cc(NC(=O)[C@@H]2C[C@H](OC)CN2C)ccc1=O [Compound 3a]

IC50 [1, 5]: > 50 µM | IC50 [2, 6]: > 50 µM
SMILES: CCn1cc(NC(=O)C2C(C)(C)C2(C)C)ccc1=O [Compound 3b]

IC50 [1, 7]: > 50 µM | IC50 [2, 8]: 40 µM
SMILES: COCc1cc(NC(=O)c2cc(F)c(Cl)s2)cn(CC(F)F)c1=O [Compound 3c]

IC50 ([1]; FL-SMARCA4 IC50): > 50 µM | IC50 [2, 9]: > 50 µM
SMILES: Cn1cc(NC(=O)C(C)(C)Oc2ccc(C#N)cc2)cc(Cl)c1=O [Compound 3d]

IC50 [1, 10]: > 50 µM | IC50 [2, 11]: > 50 µM
SMILES: Cc1cc(NC(=O)c2cnn(-c3cccc(Cl)c3)c2C)c[nH]c1=O [Compound 4]

IC50 [1, 3]: > 50 µM | IC50 [2, 4]: > 50 µM
SMILES: COC1(C(=O)Nc2ccc(=O)n(Cc3ccccc3Cl)c2)CCNCC1 [Compound 4a]

IC50 [1, 5]: > 50 µM | IC50 [2, 6]: 42 µM
SMILES: CCn1cc(NC(=O)c2ccc(Cl)c(Cl)c2)ccc1=O [Compound 4b]

IC50 [1, 7]: 18.1 µM | IC50 [2, 8]: 6.98 µM
SMILES: O=C(Nc1cc(C#CCO)c(=O)n(CC(F)F)c1)c1cc(F)c(Cl)s1 [Compound 4c]

IC50 ([1]; FL-SMARCA4 IC50): > 50 µM | IC50 [2, 9]: 32 µM
SMILES: Cc1cc(=O)n(C)cc1NC(=O)C1CCCN(Cc2ccccc2)C1 (stereo not drawn) [Compound 4d]

IC50 [1, 10]: > 50 µM | IC50 [2, 11]: > 50 µM
SMILES: CCn1cc(NC(=O)c2cnc(-c3ccc4c(c3)CCO4)s2)ccc1=O [Compound 5]

IC50 [1, 3]: > 50 µM | IC50 [2, 4]: > 50 µM
SMILES: CCn1cc(NC(=O)[C@H]2CCC(=O)N(C)[C@@H]2c2ccncc2)ccc1=O [Compound 5a]

IC50 [1, 5]: > 50 µM | IC50 [2, 6]: > 50 µM
SMILES: CCn1cc(NC(=O)c2cc(Cl)cc(Cl)c2)ccc1=O [Compound 5b]

IC50 ([1]; FL-SMARCA4 IC50): > 50 µM | IC50 [2, 9]: > 50 µM
SMILES: COc1cccc(-c2nc(C(=O)Nc3cn(C)c(=O)cc3C)cs2)c1OC [Compound 5d]

IC50 [1, 10]: > 50 µM | IC50 [2, 11]: > 50 µM
SMILES: CCn1cc(NC(=O)c2csc(-c3ccc(C)n3C)n2)ccc1=O [Compound 6]

IC50 [1, 3]: > 50 µM | IC50 [2, 4]: > 50 µM
SMILES: O=C(Nc1ccc(=O)n(Cc2ccccc2Cl)c1)C1COCCN1 (stereo not drawn) [Compound 6a]

IC50 [1, 5]: > 50 µM | IC50 [2, 6]: > 50 µM
SMILES: CCn1cc(NC(=O)c2cccc(Cl)c2)ccc1=O [Compound 6b]

IC50 [1, 7]: 0.679 µM | IC50 [2, 8]: 0.901 µM
SMILES: O=C(Nc1cc(F)c(=O)n(CC(F)F)c1)c1cc(C#Cc2cn3ccccc3n2)c(Cl)s1 [Compound 6c]

IC50 ([1]; FL-SMARCA4 IC50): > 50 µM | IC50 [2, 9]: 22.4 µM
SMILES: O=C(CNCC1CC1)Nc1ccc(=O)n(Cc2ccccc2Cl)c1 [Compound 6d]

IC50 [1, 10]: > 50 µM | IC50 [2, 11]: > 50 µM
SMILES: Cc1nc(-c2cc(C(=O)Nc3ccc(=O)n(C)c3)n(C)c2)cs1 [Compound 7]

IC50 [1, 3]: > 50 µM | IC50 [2, 4]: > 50 µM
SMILES: C[C@H]1OCC(=O)N(Cc2ccccc2)[C@@H]1C(=O)Nc1ccc(=O)n(C)c1 [Compound 7a]

IC50 [1, 5]: > 50 µM | IC50 [2, 6]: > 50 µM
SMILES: CCn1cc(NC(=O)c2ccc(Cl)cc2)ccc1=O [Compound 7b]

IC50 [1, 7]: > 50 µM | IC50 [2, 8]: > 50 µM
SMILES: CN(C)CCCc1cc(NC(=O)c2cc(F)c(Cl)s2)cn(CC(F)F)c1=O [Compound 7c]

IC50 ([1]; FL-SMARCA4 IC50): > 50 µM | IC50 [2, 9]: > 50 µM
SMILES: Cc1cc(=O)n(C)cc1NC(=O)[C@@H]1CCCO[C@H]1c1cn[nH]c1 [Compound 7d]

IC50 [1, 10]: > 50 µM | IC50 [2, 11]: > 50 µM
SMILES: Cn1cc(NC(=O)c2cc(Cl)cs2)cc(Br)c1=O [Compound 8]

IC50 [1, 3]: > 50 µM | IC50 [2, 4]: > 50 µM
SMILES: COc1ccc2[nH]c(C(=O)Nc3c[nH]c(=O)c(C)c3)cc2c1 [Compound 8a]

IC50 [1, 5]: > 50 µM | IC50 [2, 6]: > 50 µM
SMILES: CCn1cc(NC(=O)c2ccc(F)c(Cl)c2)ccc1=O [Compound 8b]

IC50 [1, 7]: > 50 µM | IC50 [2, 8]: > 50 µM
SMILES: C[S+]([O-])c1cc(NC(=O)c2cc(F)c(Cl)s2)cn(CC(F)F)c1=O (stereo not drawn) [Compound 8c]

IC50 ([1]; FL-SMARCA4 IC50): > 50 µM | IC50 [2, 9]: > 50 µM
SMILES: Cc1cc(=O)n(C)cc1NC(=O)[C@@H]1CNC[C@H]1C(F)(F)F [Compound 8d]

IC50 [1, 10]: > 50 µM | IC50 [2, 11]: > 50 µM
SMILES: COCCn1cc(NC(=O)c2cnn(-c3ccccc3C)c2C)ccc1=O [Compound 9]

IC50 [2, 4]: > 50 µM
SMILES: CCn1cc(NC(=O)c2cnc3ccccn23)ccc1=O [Compound 19a]

IC50 [1, 10]: > 50 µM
SMILES: CCn1cc(NC(=O)c2cc(C)oc2C)ccc1=O [Compound 23]

IC50 [1, 10]: > 50 µM
SMILES: CCn1cc(NC(=O)c2cc(C3CC3)on2)ccc1=O [Compound 24]

IC50 [1, 10]: > 50 µM
SMILES: CCn1cc(NC(=O)c2csc(C(F)(F)F)n2)ccc1=O [Compound 25]

IC50 [1, 10]: > 50 µM
SMILES: CCn1cc(NC(=O)c2cc(C)n[nH]2)ccc1=O [Compound 27]

IC50 [1, 10]: > 50 µM
SMILES: CCn1cc(NC(=O)c2cn(C)nc2C(F)F)ccc1=O [Compound 28]

IC50 [1, 10]: > 50 µM
SMILES: CCn1cc(NC(=O)c2csnn2)ccc1=O [Compound 29]

IC50 [1, 10]: > 50 µM
SMILES: CCn1cc(NC(=O)c2nc(Br)cs2)ccc1=O [Compound 30]

IC50 [1, 10]: > 50 µM
SMILES: CCn1cc(NC(=O)c2cn(C)nc2C(F)(F)F)ccc1=O [Compound 31]

IC50 [2, 11]: 28.5 µM
SMILES: CCn1cc(NC(=O)c2snc(Cl)c2Cl)ccc1=O [Compound 34]

IC50 [2, 11]: > 50 µM
SMILES: Cn1c(C(=O)Nc2ccc(=O)n(C3CC3)c2)cc(Cl)c1Cl [Compound 41]

IC50 [2, 11]: 12.6 µM
SMILES: CCn1c(C(=O)Nc2ccc(=O)n(CC)c2)cc(Cl)c1Cl [Compound 42]

IC50 [2, 11]: 43.1 µM
SMILES: CCn1cc(NC(=O)c2cc(Br)cs2)ccc1=O [Compound 45]

IC50 [2, 11]: 11.1 µM
SMILES: CCn1cc(NC(=O)c2ccc(I)s2)ccc1=O [Compound 46]

IC50 [2, 11]: > 50 µM
SMILES: CCn1cc(NC(=O)c2ncc(Br)s2)ccc1=O [Compound 49]

IC50 [2, 11]: > 50 µM
SMILES: O=C(Nc1ccc(=O)n(-c2ccccc2)c1)c1ccc(Br)s1 [Compound 50]

IC50 ([1]; FL-SMARCA4 IC50): 1.29 µM
SMILES: N[C@H]1CC[C@H](C#Cc2cc(C(=O)Nc3cc(F)c(=O)n(CC(F)F)c3)sc2Cl)CC1 [Compound 66d]

IC50 [2, 11]: > 50 µM
SMILES: CCn1cc(NC(=O)c2cnc(Cl)[nH]2)ccc1=O [Compound 99]

IC50 [2, 11]: > 50 µM
SMILES: CCn1cc(NC(=O)c2cc(Cl)n(C)n2)ccc1=O [Compound 100]

IC50 [1, 7]: 11.3 µM
SMILES: O=C(O)c1cccc(C#Cc2cc(C(=O)Nc3cc(F)c(=O)n(CC(F)F)c3)ccn2)c1 [Compound 132c]

IC50 [1, 10]: 0.635 µM
SMILES: N#Cc1cc(C(=O)Nc2cc(C#N)c(=O)n(CCF)c2)sc1Cl [Compound 321]
